Paper PMC539285, “Anti-Plasmodium activity of ceramide analogs” (Malaria Journal, 2004)

Key:
P. falciparum strain K1 = experiment: Anti-Plasmodium activity, strain K1; assay type: cell-based
Description: (§1) P. falciparum strains (FcB1/Colombia, K1/Thailand, F32/Tanzania, W2/Indochina) were maintained in continuous culture on human erythrocytes in RPMI medium containing 7% (v/v) heat-inactivated human serum under an atmosphere of 3% CO2, 6% O2, 91% N2, at 37°C, as described by Trager and Jensen. Parasite synchronization was performed successively by treatment with 5% (w/v) sorbitol and by concentration in gelatin solution as previously described.
(§2) Drug susceptibility assays were performed using a modification of the semi automated microdilution technique of Desjardins et al.. Stock solutions of test compounds were prepared in DMSO. Drug solutions were serially diluted twofold with 100 μl culture medium in 96-well plates. Asynchronous parasite cultures (100 μl, 1 % parasitemia and 1 % final hematocrite) were added to each well and incubated for 24 hours at 37°C prior to the addition of 0.5 μCi of [^3H] hypoxanthine (Amersham, France, 1 to 5 Ci.mmol/ml) per well. After a further incubation of 24 hour, plates were frozen and thawed. Cell lysates were then collected onto glass-filter papers and counted in a liquid scintillation spectrometer. The growth inhibition for each drug concentration was determined by comparison of the radioactivity incorporated in the treated culture with that in the control culture (having the same final % of DMSO) maintained on the same plate. […]

P. falciparum strain F32 = experiment: Anti-Plasmodium activity, strain F32; assay type: cell-based
Description: as §1, §2

P. falciparum strain W2 = experiment: Anti-Plasmodium activity, strain W2; assay type: cell-based
Description: as §1, §2

[1] = test system: tubovesicular network of P. falciparum; experiment: Tubovesicular network formation, BODIPY-FL-C5-ceramide fluorescence microscopy; assay type: cell-based, Plasmodium falciparum
Description: Infected erythrocytes treated with or without ceramide analogs were incubated for 30 min, at 37°C, in culture medium containing 10 μM BODIPY-FL-C5-ceramide, washed three times with culture medium without serum and fixed overnight, at 4°C, in 3.7% formaldehyde/0.05% glutaraldehyde. Cells were mounted on poly-L-lysine coated slides and viewed using a Nikon Eclipse TE 300 DV inverted microscope with an 100X oil objective mounted on a piezzo electric device using appropriate fluorescence emission filters. Image acquisition (z-series) was performed with a back illuminated cooled detector (CCD EEV: NTE/CCD-1024-EB, Roper Scientific, France) using a 0.2 μm step. Data acquisition and image deconvolution process were performed with Metamorph software (Universal Imaging Corporation, Roper Scientific, France). The images presented correspond to the maximum intensity projection of the deconvoluted z-series.

erythrocytes = experiment: Lysis of normal and infected erythrocytes; assay type: cell-based, human; settings: 250 nM, 48 hours
Description: By their lipidic nature, these analogs might act through a detergent effect that could lead to lysis or modification of the integrity of infected-erythrocyte membranes. This apparently is not the case. No significant lysis of normal erythrocytes was observed after 48 hous of incubation with concentrations of analogs up to 10 μM (data not shown).

[2] = test system: malaria-induced anion channel; experiment: Malaria-induced anion channel activity, whole-cell patch-clamp; assay type: cell-based, Plasmodium falciparum; settings: infected erythrocytes, 24 hours, 250 nM AD2646 or 10 μM PPMP, whole-cell patch-clamp (unpublished data)
Description: Sphingolipids preferentially interact with cholesterol in membranes, especially in detergent-resistant microdomains (DRMs or rafts). Rafts have been described in Plasmodium and are involved, at least, in the uptake of erythrocyte raft proteins and maintenance of the parasitophorous vacuole containing the parasite, inside the erythrocyte. This interaction implies : 1) van der Waals interactions between the saturated acyl chain and sphingoid moiety of sphingolipids and the rigid planar tetracyclic rings of cholesterol and 2) hydrogen bonds between the 3-β hydroxyl group of cholesterol and the fatty acyl carbonyl group resulting from the amide linkage with the sphingoid moiety. The amide-linked fatty acid function seems to have a profound stabilizing effect on cholesterol-sphingolipid interactions. It could be hypothesized that in a membrane context, methylene analogs might have a destabilizing effect on the cholesterol-sphingolipid interactions and, in consequence, modifications of membrane properties. Indeed, P. falciparum growth is characterized by a setting up of new permeabilities of the infected-erythrocyte membrane. Although the biochemical nature of these new permeabilities is still unknown, they have been characterized from an electrophysiological point of view and involve a malaria-induced anion channel. […]

CQ-resistant strain K1 = experiment: Drug combination with antimalarial drugs, strain K1; assay type: cell-based, Plasmodium falciparum; settings: CQ-resistant strain K1 (data not shown)
Description: (§3) Compound AD2646 (Figure 1) was selected to further investigate the biological effects of methylene analogs on parasite development.

FcB1 strain = experiment: Drug combination with antimalarial drugs, strain FcB1; assay type: cell-based, Plasmodium falciparum; settings: FcB1 strain (data not shown)
Description: as §3

Which results are given for CCCCCCCCCCCCCCN[C@H](CO)[C@H](O)c1ccc([N+](=O)[O-])cc1 [AD2646]?
IC50 (P. falciparum strain K1): 0.045 µM; IC50 (P. falciparum strain F32): 0.021 µM; IC50 (P. falciparum strain W2): 0.028 µM; parasite development ([1]; 60 nM): blocks irreversibly the parasite development; TVN formation ([1]; rings incubated 24 hours with 60 nM AD2646 or 5 μM PPMP): TVN was distinctly observed; parasite growth (erythrocytes): inhibiting parasite growth totally; lysis of infected erythrocytes (erythrocytes; infected cultures, Giemsa-stained smears): no preferential lysis of infected-erythrocytes; induced anion channel activity [2]: did not modulate significantly the induced channel activity; drug combination effect with CQ (CQ-resistant strain K1): non-synergistic and non-antagonistic effect; drug combination effect with artemether (FcB1 strain): non-synergistic and non-antagonistic effect; drug combination effect with mefloquine (FcB1 strain): non-synergistic and non-antagonistic effect
